Values of other authors as cited in patent publication US20050124598A1, “Antibiotic compounds” (priority 2001, published 2005).

Molecular target: PBP2a (Staphylococcus aureus, UniProt P07944)
Conditions: reported β-lactam inhibitors, literature values

PBP2a, sequence (P07944 whole entry): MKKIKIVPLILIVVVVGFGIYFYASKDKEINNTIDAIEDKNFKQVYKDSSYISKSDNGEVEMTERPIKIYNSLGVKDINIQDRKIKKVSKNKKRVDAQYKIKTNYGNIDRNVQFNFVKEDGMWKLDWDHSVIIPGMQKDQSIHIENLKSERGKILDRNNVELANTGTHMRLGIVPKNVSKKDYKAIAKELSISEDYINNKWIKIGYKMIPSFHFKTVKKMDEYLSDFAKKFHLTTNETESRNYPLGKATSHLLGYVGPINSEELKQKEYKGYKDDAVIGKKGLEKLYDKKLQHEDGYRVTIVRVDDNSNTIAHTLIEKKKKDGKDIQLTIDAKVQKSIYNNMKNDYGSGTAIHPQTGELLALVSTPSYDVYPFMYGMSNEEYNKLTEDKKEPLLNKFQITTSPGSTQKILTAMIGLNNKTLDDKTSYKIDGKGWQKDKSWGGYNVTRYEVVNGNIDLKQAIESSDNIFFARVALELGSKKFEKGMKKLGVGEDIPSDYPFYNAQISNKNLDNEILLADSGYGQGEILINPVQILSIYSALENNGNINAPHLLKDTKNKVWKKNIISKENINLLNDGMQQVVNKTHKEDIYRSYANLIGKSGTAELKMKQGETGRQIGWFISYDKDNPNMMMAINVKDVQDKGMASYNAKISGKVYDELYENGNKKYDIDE

SMILES | IC50 for PBP2a [µg/mL]
NCCSCc1cnccc1SC1=C(C(=O)O)N2C(=O)[C@@H](NC(=O)/C(=N\O)c3nc(N)sc3Cl)[C@H]2SC1 [MC-02479] | 0.5
NC(=O)C[n+]1ccc(S/C=C/C2=C(C(=O)[O-])N3C(=O)C(NC(=O)/C(=N\O)c4csc(N)n4)C3SC2)cc1 (centres unmarked) [TOC-39] | 0.58
